{"source": "paper PMC9308409", "about": "(Communications Biology, 2022)", "key": {"[1]": {"system": "lysosomal TPC2", "conditions": "cited from earlier work"}, "[2]": {"target": "T1, human TPC2^PM Y312A mutant (Homo sapiens, UniProt Q8NHX9, L11A/L12A/Y312A)", "T1 construct": "FLAG (C); V5 (C); expressed in transfected cells; host or cells: HEK293", "T1 sequence (Q8NHX9 whole entry L11A/L12A/Y312A)": "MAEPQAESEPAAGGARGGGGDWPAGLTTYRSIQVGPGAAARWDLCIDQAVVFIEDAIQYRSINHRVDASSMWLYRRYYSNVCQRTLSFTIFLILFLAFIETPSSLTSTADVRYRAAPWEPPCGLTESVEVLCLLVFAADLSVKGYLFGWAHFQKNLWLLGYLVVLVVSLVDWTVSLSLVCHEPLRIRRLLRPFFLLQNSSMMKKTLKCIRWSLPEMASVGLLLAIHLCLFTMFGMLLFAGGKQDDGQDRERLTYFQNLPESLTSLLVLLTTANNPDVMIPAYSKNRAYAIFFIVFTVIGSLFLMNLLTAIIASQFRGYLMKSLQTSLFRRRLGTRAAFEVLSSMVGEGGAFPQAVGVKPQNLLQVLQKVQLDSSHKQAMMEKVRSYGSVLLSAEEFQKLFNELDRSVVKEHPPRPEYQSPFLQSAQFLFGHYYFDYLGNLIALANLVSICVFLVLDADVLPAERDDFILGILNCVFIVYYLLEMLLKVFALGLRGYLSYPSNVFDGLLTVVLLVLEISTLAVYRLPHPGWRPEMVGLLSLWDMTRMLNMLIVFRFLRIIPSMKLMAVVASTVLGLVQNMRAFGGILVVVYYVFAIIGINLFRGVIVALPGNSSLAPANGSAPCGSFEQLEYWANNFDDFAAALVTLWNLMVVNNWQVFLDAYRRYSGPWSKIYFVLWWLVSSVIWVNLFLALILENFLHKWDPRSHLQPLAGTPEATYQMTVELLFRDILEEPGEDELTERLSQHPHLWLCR", "assay": "Inside-out patch-clamp, PI(3,5)P2-activated TPC2^PM Y312A", "assay_type": "cell-based", "conditions": "for current, trace of PI103 on Y312A of TPC2 channel: successive trace points", "description": "(§1) After 24 h of transfection, human TPC1^PM or TPC2^PM channel currents were acquired at room temperature using an EPC-10 amplifier and PatchMaster software (HEKA) or a MultiClamp 700B amplifier and pCLAMP software (Axon Instruments). […] Patch pipettes were polished with a resistance of 2–3 MΩ for recording. Similarly, for whole-cell recording to allow inhibitor application on the extracellular side, the K^+-based solution was used as the pipette solution, and the Na^+-based solution was used in the bath."}, "[3]": {"target": "T2, human TPC2 L11A/L12A (TPC2^PM) (Homo sapiens, UniProt Q8NHX9, L11A/L12A)", "T2 construct": "FLAG (C); V5 (C); expressed in transfected cells; host or cells: HEK293", "T2 sequence (Q8NHX9 whole entry L11A/L12A)": "as the sequence (Q8NHX9 whole entry L11A/L12A/Y312A) above, with A312Y counted along it", "assay": "Inside-out patch-clamp of PI(3,5)P2-induced TPC2^PM Na+ currents (WT pore)", "assay_type": "cell-based", "conditions": "for current, trace of PI103 on WT TPC2 channel: voltage -1.20E+02, successive trace points", "description": "as §1\nDose curves were fitted by the Hill logistic equation. τon and τoff were acquired from singe exponential fitting."}, "[4]": {"target": "T3, human TPC2^PM H699A mutant (Homo sapiens, UniProt Q8NHX9, H699A/L11A/L12A)", "T3 construct": "FLAG (C); V5 (C); expressed in transfected cells; host or cells: HEK293", "T3 sequence (Q8NHX9 whole entry L11A/L12A/H699A)": "as the sequence (Q8NHX9 whole entry L11A/L12A/Y312A) above, with A312Y, H699A counted along it", "assay": "Inside-out patch-clamp, PI(3,5)P2-activated TPC2^PM H699A", "assay_type": "cell-based", "conditions": "for current, trace of PI103 on H699A of TPC2 channel: voltage -1.20E+02, successive trace points", "description": "as §1"}, "[5]": {"system": "Ebola virus", "conditions": "read-out: IC50 virus entry; cited from earlier work"}, "[6]": {"target": "T4, human TPC2^PM Y312A/H699A mutant (Homo sapiens, UniProt Q8NHX9, H699A/L11A/L12A/Y312A)", "T4 construct": "FLAG (C); V5 (C); expressed in transfected cells; host or cells: HEK293", "T4 sequence (Q8NHX9 whole entry L11A/L12A/Y312A/H699A)": "as the sequence (Q8NHX9 whole entry L11A/L12A/Y312A) above, with H699A counted along it", "assay": "Inside-out patch-clamp, PI(3,5)P2-activated TPC2^PM Y312A/H699A", "assay_type": "cell-based", "conditions": "0.3 μM PI(3,5)P2 alone, trace, voltage -1.20E+02", "description": "as §1"}, "[7]": {"system": "TPCs", "conditions": "read-out: IC50 inhibition of TPCs; cited from earlier work"}, "[8]": {"target": "T2, human TPC2 L11A/L12A (TPC2^PM)", "assay": "Whole cell patch-clamp of NAADP (microinjection)-induced TPC2^PM currents in HEK293 cells", "assay_type": "cell-based", "set-up": "averaged NAADP-induced whole cell current trace: unit not given here", "description": "Whole cell patch-clamp recording of the NAADP (microinjection)-induced TPC2^PM currents was performed as we reported. […] The cells were visualized under an infrared differential interference contrast optics microscope (Zeiss). Currents were recorded by voltage ramps from −120 to +120 mV over 400 ms for every 2 s with a holding potential of 0 mV. After a whole cell recording configuration was achieved, an injection pipette was inserted into the cell and the baseline of the whole cell current was recorded. Microinjection of NAADP was performed as above in imaging analysis of NAADP-evoked Ca^2+ release. The NAADP-induced currents were obtained by subtraction of the baseline from NAADP injection-induced currents."}, "[9]": {"target": "T5, human TPC2 (Homo sapiens, UniProt Q8NHX9)", "T5 construct": "FLAG (C); V5 (C); expressed in transfected cells; host or cells: HEK293", "assay": "Imaging of NAADP-evoked Ca2+ elevation (GCaMP6f) after microinjection in TPC2-expressing HEK293 cells", "assay_type": "cell-based", "description": "Ca^2+ imaging analysis of NAADP-evoked Ca^2+ elevation was performed as we recently described. Briefly, cells were co-transfected with cDNA constructs of human TPC2 and the Ca^2+ reporter GCaMP6f, and the transfected cells were identified by GCaMP6f fluorescence. Fluorescence was monitored with an Axio Observer A1 microscope equipped with an AxioCam MRm digital camera and ZEN Blue 2 software containing a physiology module (Carl Zeiss) at a sampling frequency of 2 Hz. Cell injection was performed with a FemtoJet microinjector (Eppendorf). The pipette solution contained 110 mM KCl, 10 mM NaCl, and 20 mM Hepes (pH 7.2) supplemented with Dextran (10,000 MW)-Texas Red (0.3 mg/ml) and NAADP (100 nM) or vehicle. When needed, 10 µM YM201626 or apilimod at was added to the pipette solution. […] To minimize interference by contaminated Ca^2+, the pipette solution was always treated with Chelex 100 resin (#C709, Sigma-Aldrich) immediately before use. Microinjection (0.5 s at 150 hPa) was made ~30 s after pipette tip insertion into cells. […] Successful injection was verified by fluorescence of the co-injected Texas Red. Elevation in intracellular Ca^2+ concentration was reported by a change in fluorescence intensity measured as ΔF/F0, calculated from NAADP microinjection-induced maximal changes in fluorescence (ΔF at the peak) divided by the fluorescence immediately before microinjection (F0)."}}, "note": "Where “and” joins values, the source holds several entries; their conditions need not be identical. Identical values can stand only once. Like-named read-outs stand apart in the source and are kept apart here.", "data": [{"smiles": "COc1ccc([C@H]2N[C@H](C(=O)O)Cc3c2[nH]c2ccccc32)cc1CN1CCN(c2ccccc2F)CC1", "note": "[Ned-19]", "values": [{"measurement": "inhibition of lysosomal TPC2 activity", "setting": "[1]; 200 µM", "result": "~ 75%"}]}, {"smiles": "Oc1cccc(-c2nc(N3CCOCC3)c3oc4ncccc4c3n2)c1", "note": "[PI103]", "values": [{"measurement": "current, trace of PI103 on Y312A of TPC2 channel", "setting": "[2]; 0.3 μM PI(3,5)P2 + 2.0 μM PI103, voltage -1.20E+02", "result": "-3.13E-09", "unit": "A"}, {"measurement": "current, trace of PI103 on Y312A of TPC2 channel", "setting": "[2]; 0.3 μM PI(3,5)P2 + 5.0 μM PI103, voltage -1.20E+02", "result": "-1.87E-09", "unit": "A"}, {"measurement": "current, trace of PI103 on Y312A of TPC2 channel", "setting": "[2]; 0.3 μM PI(3,5)P2 + 20.0 μM PI103, voltage -1.20E+02", "result": "-1.61E-09", "unit": "A"}, {"measurement": "current, trace of PI103 on WT TPC2 channel", "setting": "[3]; 0.3 μM PI(3,5)P2 + 0.2 μM PI103", "result": "-1.97E-09", "unit": "A"}, {"measurement": "current, trace of PI103 on WT TPC2 channel", "setting": "[3]; 0.3 μM PI(3,5)P2 + 0.5 μM PI103", "result": "-1.21E-09", "unit": "A"}, {"measurement": "current, trace of PI103 on H699A of TPC2 channel", "setting": "[4]; 0.3 μM PI(3,5)P2 + 0.4 μM PI103", "result": "-4.01E-09", "unit": "A"}, {"measurement": "current, trace of PI103 on H699A of TPC2 channel", "setting": "[4]; 0.3 μM PI(3,5)P2 + 20.0 μM PI103", "result": "-3.66E-09", "unit": "A"}, {"measurement": "current, trace of PI103 on H699A of TPC2 channel", "setting": "[4]; 0.3 μM PI(3,5)P2 + 50.0 μM PI103", "result": "-3.37E-09", "unit": "A"}]}, {"smiles": "COc1cc2c(cc1Oc1ccccc1)C(Cc1ccc(Oc3ccccc3)cc1)N(C)CC2", "note": "(centres unmarked) [SG-094]", "values": [{"measurement": "inhibition of (lysosomal) TPC2 currents", "setting": "[1]; 10 µM", "result": "~ 75%"}]}, {"smiles": "COc1ccc2cc1Oc1ccc(cc1)C[C@H]1c3cc(c(OC)cc3CCN1C)Oc1c(OC)c(OC)cc3c1[C@H](C2)N(C)CC3", "note": "[tetrandrine]", "values": [{"measurement": "IC50", "setting": "[5]", "result": 0.055, "unit": "µM"}, {"measurement": "inhibition of (lysosomal) TPC2 currents", "setting": "[1]; 0.5 µM", "result": 60, "unit": "%"}, {"measurement": "inhibition of (lysosomal) TPC2 currents", "setting": "[1]; 10 µM", "result": "54% and 50–60%"}]}, {"smiles": "Oc1cccc(-c2nc(N3CCOCC3)c3oc4ncccc4c3n2)c1", "note": "[PI-103]", "values": [{"measurement": "IC50", "setting": "[2]", "result": 13.9, "unit": "µM"}, {"measurement": "fold higher IC50 than that of YM201636", "setting": "[3]; WT TPC2^PM", "result": 4, "unit": "fold"}, {"measurement": "IC50", "setting": "[3]; read-out: IC50 for inhibition of PI(3,5)P2-induced human TPC2 channel Na+ currents", "result": 0.64, "unit": "µM"}, {"measurement": "channel's blockade in H699A mutant", "setting": "[4]; 0.3 μM PI(3,5)P2, inside-out", "result": "largely abolished"}]}, {"smiles": "CCCCCCCC(=O)OC[C@H](COP(=O)(O)OC1[C@H](O)[C@H](OP(=O)(O)O)C(O)[C@H](OP(=O)(O)O)[C@H]1O)OC(=O)CCCCCCC", "note": "(some centres unmarked) [PI(3,5)P2, phosphatidylinositol 3,5-bisphosphate]", "values": [{"measurement": "current(A)", "setting": "[2]; Y312A TPC2, 0.3 μM PI(3,5)P2 alone, trace, voltage -1.20E+02", "result": "-2.83E-09", "unit": "A"}, {"measurement": "deactivation rate τoff on wash-off", "setting": "[3]; 1.0 μM PI(3,5)P2, n = 7", "result": "20.8 ± 0.9", "unit": "s"}, {"measurement": "activation rate τon of human TPC2 channels", "setting": "[3]; 1.0 μM PI(3,5)P2 from cytosolic side, n = 8", "result": "9.0 ± 0.5", "unit": "s"}, {"measurement": "kinetics (Tau) of TPC2PM currents, mean value", "setting": "[3]; PI(3,5)P2 wash on", "result": 9.035}, {"measurement": "Tau of TPC2PM currents, PI(3,5)P2 wash on after Y201636, single cells", "setting": "[3]; individual cells 1-5, Fig 3D", "result": "48.718 and 63.746 and 69.896 and 56.91 and 53.316"}, {"measurement": "Tau of TPC2PM currents, PI(3,5)P2 wash off, single cells", "setting": "[3]; individual cells 1-7, Fig 3D", "result": "21.372 and 18.6234 and 21.6704 and 18.1982 and 20.854 and 19.4692 and 25.31"}, {"measurement": "Tau of TPC2PM currents, PI(3,5)P2 wash on, single cells", "setting": "[3]; individual cells 1-8, Fig 3D", "result": "8.4824 and 9.9858 and 7.6828 and 7.7804 and 8.8206 and 10.9364 and 11.3272 and 7.265"}, {"measurement": "Averaged kinetics (Tau) of TPC2PM currents, PI(3,5)P2 wash on after YM201636, mean value", "setting": "[3]; mean, 5 cells, Fig 3D", "result": 11.9903}, {"measurement": "Averaged kinetics (Tau) of TPC2PM currents, PI(3,5)P2 wash off, mean value", "setting": "[3]; mean, 7 cells, Fig 3D", "result": 20.7853}, {"measurement": "Averaged kinetics (Tau) of TPC2PM currents, PI(3,5)P2 wash on, mean value", "setting": "[3]; mean, 8 cells, Fig 3D", "result": 9.035}, {"measurement": "current(A)", "setting": "[6]", "result": "-4.54E-09", "unit": "A"}]}, {"smiles": "O=C1C[C@@H](c2ccc(O)cc2)Oc2cc(O)cc(O)c21", "note": "[Naringenin]", "values": [{"measurement": "IC50", "setting": "[7]", "result": "~200", "unit": "µM"}]}, {"smiles": "Cc1cccc(/C=N/Nc2cc(N3CCOCC3)nc(OCCc3ccccn3)n2)c1", "note": "[apilimod]", "values": [{"measurement": "inhibition of the NAADP-induced TPC2^PM currents", "setting": "[8]; 1 µM in bath solution ~10 min, whole cell, −120 mV", "result": "little effect"}, {"measurement": "averaged NAADP-induced whole cell current trace", "setting": "[8]; 1 uM, Voltage -119.76", "result": -0.4148}, {"measurement": "averaged NAADP-induced whole cell current trace", "setting": "[8]; 1 uM, Voltage -119.82", "result": -0.4172}, {"measurement": "averaged NAADP-induced whole cell current trace", "setting": "[8]; 1 uM, Voltage -119.88", "result": -0.4198}, {"measurement": "averaged NAADP-induced whole cell current trace", "setting": "[8]; 1 uM, Voltage -119.94", "result": -0.4267}, {"measurement": "averaged NAADP-induced whole cell current trace", "setting": "[8]; 1 uM, Voltage -120, Fig 1C source data", "result": -0.4289}, {"measurement": "I, current density of NAADP-induced whole cell TPC2^PM currents, individual cells", "setting": "[8]; 1 uM, −120 mV, Fig 1D source data", "result": "94.6904 pA/pF and 47.5492 pA/pF and 12.9726 pA/pF and 46.7536 pA/pF and 31.7662 pA/pF and 23.2025 pA/pF"}, {"measurement": "reduction of the NAADP-evoked Ca2+ elevation", "setting": "[9]; 1 µM microinjected together with NAADP (100 nM), HEK293 cells", "result": "largely unaffected"}, {"measurement": "NAADP-evoked calcium elevation (change in Ca2+ indicator fluorescence), individual cells", "setting": "[9]; Fig 1B source data, 1 µM microinjected with NAADP", "result": "2.593 and 3.9665 and 6.13 and 1.0864 and 2.248 and 3.0742"}]}]}
